From ChEMBL document CHEMBL5113392, “Novel hybrid pyrrolidinedione-thiazolidinones as potential anticancer agents: Synthesis and biological evaluation” (Eur J Med Chem, 2022)
The source made the active and inactive calls. The rule behind the calls is not given here.

Key:
[1] = system: MDA-MB-435; assay: Anticancer activity against human MDA-MB-435 cells assessed as lethality incubated for 48 hrs by SRB assay; type: functional; conditions: read-out: LC50 (the source's name)
[2] = system: Jurkat; assay: Induction of morphological changes in human Jurkat cells assessed as plasma membrane blebbing incubated for 24 hrs by Hoechst 33258 and propidium iodide staining based fluorescence microscopy; type: functional, cell-based
[3] = system: MDA-MB-435; assay: Anticancer activity against human MDA-MB-435 cells assessed as growth inhibition incubated for 48 hrs by SRB assay; type: functional
[4] = system: RPMI-8226; assay: Anticancer activity against human RPMI-8226 cells assessed as lethality incubated for 48 hrs by SRB assay; type: functional; conditions: read-out: LC50 (the source's name)
[5] = Selectivity index, ratio of GI50 for human HaCaT cells to GI50 for human SK-OV-3 cells; type: toxicity; conditions: HaCaT cells versus SK-OV-3 cells, read-out: RatioGI50
[6] = system: HOP-92; assay: Anticancer activity against human HOP-92 cells assessed as lethality incubated for 48 hrs by SRB assay; type: functional; conditions: read-out: LC50 (the source's name)
[7] = system: SK-MEL-28; assay: Anticancer activity against human SK-MEL-28 cells assessed as growth inhibition incubated for 48 hrs by SRB assay; type: functional
[8] = Cytotoxicity against mitogen activated human peripheral blood lymphocytes assessed as cell growth inhibition incubated for 24 hrs by MTT assay; type: toxicity, cell-based, Lymphocyte
[9] = system: SN12C; assay: Anticancer activity against human SN12C cells assessed as total growth inhibition incubated for 48 hrs by SRB assay; type: functional
[10] = system: HCT-116; assay: Anticancer activity against human HCT-116 cells assessed as total growth inhibition incubated for 48 hrs by SRB assay; type: functional
[11] = system: T47D; assay: Anticancer activity against human T47D cells assessed as lethality incubated for 48 hrs by SRB assay; type: functional; conditions: read-out: LC50 (the source's name)
[12] = system: SF-268; assay: Anticancer activity against human SF-268 cells assessed as growth inhibition incubated for 48 hrs by SRB assay; type: functional
[13] = system: MDA-MB-468; assay: Anticancer activity against human MDA-MB-468 cells assessed as growth inhibition incubated for 48 hrs by SRB assay; type: functional
[14] = system: HCT-15; assay: Anticancer activity against human HCT-15 cells assessed as lethality incubated for 48 hrs by SRB assay; type: functional; conditions: read-out: LC50 (the source's name)
[15] = system: NCI-H23; assay: Anticancer activity against human NCI-H23 cells assessed as total growth inhibition incubated for 48 hrs by SRB assay; type: functional
[16] = system: M14; assay: Anticancer activity against human M14 cells assessed as growth inhibition incubated for 48 hrs by SRB assay; type: functional
[17] = system: NCI-H23; assay: Anticancer activity against human NCI-H23 cells assessed as growth inhibition incubated for 48 hrs by SRB assay; type: functional
[18] = Selectivity index, ratio of GI50 for human HaCaT cells to GI50 for human A549 cells; type: toxicity; conditions: HaCaT cells versus A549 cells, read-out: RatioGI50
[19] = system: OVCAR-3; assay: Anticancer activity against human OVCAR-3 cells assessed as growth inhibition incubated for 48 hrs by SRB assay; type: functional
[20] = system: SK-OV-3; assay: Anticancer activity against human SK-OV-3 cells assessed as cell growth inhibition incubated for 72 hrs by MTT assay; type: functional
[21] = system: A549; assay: Anticancer activity against human A549 cells assessed as total growth inhibition incubated for 48 hrs by SRB assay; type: functional
[22] = system: HCC 2998; assay: Anticancer activity against human HCC 2998 cells assessed as inhibition of cell growth at 10 uM incubated for 48 hrs by SRB assay; type: functional; conditions: HCC 2998, 48 h, values are per cent of control
[23] = system: SF-295; assay: Anticancer activity against human SF-295 cells assessed as growth inhibition incubated for 48 hrs by SRB assay; type: functional
[24] = system: 786-0; assay: Anticancer activity against human 786-0 cells assessed as growth inhibition incubated for 48 hrs by SRB assay; type: functional
[25] = system: HeLa; assay: Anticancer activity against human HeLa cells assessed as cell growth inhibition incubated for 72 hrs by MTT assay; type: functional
[26] = system: T47D; assay: Anticancer activity against human T47D cells assessed as growth inhibition incubated for 48 hrs by SRB assay; type: functional
[27] = system: HCT-116; assay: Anticancer activity against human HCT-116 cells assessed as lethality incubated for 48 hrs by SRB assay; type: functional; conditions: read-out: LC50 (the source's name)
[28] = system: PC-3; assay: Anticancer activity against human PC-3 cells assessed as growth inhibition incubated for 48 hrs by SRB assay; type: functional
[29] = system: Jurkat; assay: Induction of morphological changes in human Jurkat cells assessed as chromatin topology incubated for 24 hrs by Hoechst 33258 and propidium iodide staining based fluorescence microscopy; type: functional, cell-based
[30] = system: KM12; assay: Anticancer activity against human KM12 cells assessed as growth inhibition incubated for 48 hrs by SRB assay; type: functional
[31] = system: RXF 393; assay: Anticancer activity against human RXF 393 cells assessed as inhibition of cell growth at 10 uM incubated for 48 hrs by SRB assay; type: functional; conditions: RXF 393, 48 h, values are per cent of control
[32] = system: CAKI-1; assay: Anticancer activity against human CAKI-1 cells assessed as lethality incubated for 48 hrs by SRB assay; type: functional; conditions: read-out: LC50 (the source's name)
[33] = system: OVCAR-4; assay: Anticancer activity against human OVCAR-4 cells assessed as total growth inhibition incubated for 48 hrs by SRB assay; type: functional
[34] = system: SK-MEL-2; assay: Anticancer activity against human SK-MEL-2 cells assessed as growth inhibition incubated for 48 hrs by SRB assay; type: functional
[35] = system: MCF7; assay: Anticancer activity against human MCF7 cells assessed as cell growth inhibition incubated for 72 hrs by MTT assay; type: functional
[36] = system: U-251; assay: Anticancer activity against human U-251 cells assessed as total growth inhibition incubated for 48 hrs by SRB assay; type: functional
[37] = system: COLO 205; assay: Anticancer activity against human COLO 205 cells assessed as growth inhibition incubated for 48 hrs by SRB assay; type: functional
[38] = system: SNB-19; assay: Anticancer activity against human SNB-19 cells assessed as lethality incubated for 48 hrs by SRB assay; type: functional; conditions: read-out: LC50 (the source's name)
[39] = system: MDA-MB-231; assay: Anticancer activity against human MDA-MB-231 cells assessed as cell growth inhibition incubated for 72 hrs by MTT assay; type: functional
[40] = system: MDA-MB-468; assay: Anticancer activity against human MDA-MB-468 cells assessed as total growth inhibition incubated for 48 hrs by SRB assay; type: functional
[41] = system: Malme-3M; assay: Anticancer activity against human Malme-3M cells assessed as lethality incubated for 48 hrs by SRB assay; type: functional; conditions: read-out: LC50 (the source's name)
[42] = system: OVCAR-8; assay: Anticancer activity against human OVCAR-8 cells assessed as growth inhibition incubated for 48 hrs by SRB assay; type: functional
[43] = Selectivity index, ratio of GI50 for human HaCaT cells to GI50 for human Jurkat cells; type: toxicity; conditions: HaCaT cells versus Jurkat cells, read-out: RatioGI50
[44] = system: RPMI-8226; assay: Anticancer activity against human RPMI-8226 cells assessed as growth inhibition incubated for 48 hrs by SRB assay; type: functional
[45] = system: OVCAR-8; assay: Anticancer activity against human OVCAR-8 cells assessed as lethality incubated for 48 hrs by SRB assay; type: functional; conditions: read-out: LC50 (the source's name)
[46] = system: ACHN; assay: Anticancer activity against human ACHN cells assessed as total growth inhibition incubated for 48 hrs by SRB assay; type: functional
[47] = system: SNB-19; assay: Anticancer activity against human SNB-19 cells assessed as growth inhibition incubated for 48 hrs by SRB assay; type: functional
[48] = system: HOP-92; assay: Anticancer activity against human HOP-92 cells assessed as growth inhibition incubated for 48 hrs by SRB assay; type: functional
[49] = system: CAKI-1; assay: Anticancer activity against human CAKI-1 cells assessed as growth inhibition incubated for 48 hrs by SRB assay; type: functional

With O=C1CC(N2C(=O)/C(=C/C(Cl)=C/c3ccc([N+](=O)[O-])cc3)SC2=S)C(=O)N1c1ccc(O)cc1 (stereo not drawn) the CC50 [1] was 9.37 µM, the Activity [2] was “Active” and the GI50 [3] was 2.01 µM. It also gave a CC50 [4] of over 100 µM, a selectivity ratio [5] of 0.74 and a CC50 [6] of 8.54 µM. It also gave a GI50 [7] of 1.95 µM, a GI50 at 24 h [8] of 67.1 µM and a TGI [9] of 5.88 µM. The TGI [10] was 2.14 µM, the CC50 [11] was over 100 µM and the GI50 [12] was 2.43 µM. The GI50 [13] was 1.87 µM, the CC50 [14] was 6.09 µM and the TGI [15] was 3.52 µM. It also gave a GI50 [16] of 1.46 µM, a GI50 [17] of 1.56 µM and a selectivity ratio [18] of 10.2. For the same molecule, the GI50 [19] was 0.604 µM, the GI50 [20] was over 100 µM and the TGI [21] was 11.4 µM. The growth, % of control at 10 µM [22] was -81.6%, the GI50 [23] was 1.31 µM and the GI50 [24] was 1.23 µM. For the same molecule, the GI50 [25] was 6.13 µM, the GI50 [26] was 2.45 µM and the CC50 [27] was 5.22 µM. The GI50 [28] was 0.906 µM, the Activity [29] was “Active” and the GI50 [30] was 1.83 µM. The growth, % of control at 10 µM [31] was -70.5%, the CC50 [32] was 5.12 µM and the TGI [33] was 17.3 µM. It also gave a GI50 [34] of 2.74 µM, a GI50 [35] of 4 µM and a TGI [36] of 2.21 µM. The GI50 [37] was 1.83 µM, the CC50 [38] was 8.97 µM and the GI50 [39] was 6.2 µM. It also gave a TGI [40] of 5.7 µM, a CC50 [41] of 21 µM and a GI50 [42] of 2.16 µM. For the same molecule, the selectivity ratio [43] was 56.6, the GI50 [44] was 0.295 µM and the CC50 [45] was over 100 µM. For the same molecule, the TGI [46] was 2.76 µM, the GI50 [47] was 1.34 µM and the GI50 [48] was 1.62 µM. For the same molecule, the GI50 [49] was 1.15 µM.

With O=C1CC(N2C(=O)/C(=C/C(Cl)=C/c3ccc([N+](=O)[O-])cc3)SC2=S)C(=O)N1c1ccc(Cl)cc1 (stereo not drawn) the CC50 [1] was 6.98 µM, the Activity [2] was “Active” and the GI50 [3] was 1.65 µM. It also gave a CC50 [4] of 71 µM, a selectivity ratio [5] of 1.52 and a CC50 [6] of over 100 µM. It also gave a GI50 [7] of 1.71 µM, a GI50 at 24 h [8] of 36.8 µM and a TGI [9] of 11.1 µM. The TGI [10] was 3.04 µM, the CC50 [11] was over 100 µM and the GI50 [12] was 3.07 µM. The GI50 [13] was 1.33 µM, the CC50 [14] was 77.4 µM and the TGI [15] was 4.31 µM. It also gave a GI50 [16] of 2.11 µM, a GI50 [17] of 1.64 µM and a selectivity ratio [18] of 1.56. For the same molecule, the GI50 [19] was 0.721 µM, the GI50 [20] was 65.9 µM and the TGI [21] was over 100 µM. It also gave a growth, % of control at 10 µM [22] of -22.9%, a GI50 [23] of 1.4 µM and a GI50 [24] of 1.63 µM. For the same molecule, the GI50 [25] was 6.65 µM, the GI50 [26] was 2.03 µM and the CC50 [27] was 6.85 µM. The GI50 [28] was 1.34 µM, the Activity [29] was “Active” and the GI50 [30] was 1.96 µM. It also gave a growth, % of control at 10 µM [31] of -64.1%, a CC50 [32] of 9.52 µM and a TGI [33] of over 100 µM. For the same molecule, the GI50 [34] was 3.12 µM, the GI50 [35] was 7.95 µM and the TGI [36] was 2.47 µM. It also gave a GI50 [37] of 1.4 µM, a CC50 [38] of 7.54 µM and a GI50 [39] of 6.45 µM. The TGI [40] was 3.1 µM, the CC50 [41] was over 100 µM and the GI50 [42] was 0.832 µM. The selectivity ratio [43] was 29.4, the GI50 [44] was 0.303 µM and the CC50 [45] was over 100 µM. It also gave a TGI [46] of 3.48 µM, a GI50 [47] of 1.17 µM and a GI50 [48] of 2.58 µM. For the same molecule, the GI50 [49] was 1.13 µM.
